In ChEMBL document CHEMBL1275550, “In vitro activity of doripenem, a carbapenem for the treatment of challenging infections caused by gram-negative bacteria, against recent clinical isolates from the United States” (2008):
≈ marks a conversion by molar mass, not a printed value.

Experiments:
Enterobacteriaceae [1] = assay: Antimicrobial activity against ceftazidime-susceptible Enterobacteriaceae by broth microdilution method; type: functional
Enterobacteriaceae [2] = assay: Antimicrobial activity against Ceftazidime non-susceptible Enterobacteriaceae by broth microdilution method; type: functional
Enterobacteriaceae [3] = assay: Antimicrobial activity against ceftazidime-susceptible Enterobacteriaceae assessed as intermediate isolate by broth microdilution method; type: functional
Enterobacteriaceae [4] = assay: Antimicrobial activity against ceftazidime-susceptible Enterobacteriaceae assessed as resistant isolate by broth microdilution method; type: functional
Enterobacteriaceae [5] = assay: Antimicrobial activity against Ceftazidime non-susceptible Enterobacteriaceae assessed as intermediate isolate by broth microdilution method; type: functional
Escherichia coli [6] = assay: Antimicrobial activity against Non-ESBL Escherichia coli assessed as susceptible isolate by broth microdilution method; type: functional
Escherichia coli [7] = assay: Antimicrobial activity against ESBL producing Escherichia coli assessed as susceptible isolate by broth microdilution method; type: functional
Klebsiella pneumoniae [8] = assay: Antimicrobial activity against Klebsiella pneumoniae by broth microdilution method; type: functional
Klebsiella pneumoniae [9] = assay: Antimicrobial activity against Klebsiella pneumoniae assessed as susceptible isolate by broth microdilution method; type: functional
Klebsiella pneumoniae [10] = assay: Antimicrobial activity against ESBL producing Klebsiella pneumoniae assessed as susceptible isolate by broth microdilution method; type: functional
Klebsiella pneumoniae [11] = assay: Antimicrobial activity against ESBL producing Klebsiella pneumoniae assessed as intermediate isolate by broth microdilution method; type: functional
Proteus mirabilis [12] = assay: Antimicrobial activity against Proteus mirabilis by broth microdilution method; type: functional
Proteus mirabilis [13] = assay: Antimicrobial activity against Proteus mirabilis assessed as susceptible isolate by broth microdilution method; type: functional
Pseudomonas aeruginosa [14] = assay: Antimicrobial activity against Pseudomonas aeruginosa isolated from non-ICU patient by broth microdilution method; type: functional
Pseudomonas aeruginosa [15] = assay: Antimicrobial activity against Pseudomonas aeruginosa isolated from ICU patient by broth microdilution method; type: functional
Proteus mirabilis [16] = assay: Antimicrobial activity against Non-ESBL Proteus mirabilis assessed as susceptible isolate by broth microdilution method; type: functional
Proteus mirabilis [17] = assay: Antimicrobial activity against ESBL producing Proteus mirabilis assessed as susceptible isolate by broth microdilution method; type: functional
Proteus mirabilis [18] = assay: Antimicrobial activity against ESBL producing Proteus mirabilis assessed as intermediate isolate by broth microdilution method; type: functional
Enterobacter cloacae [19] = assay: Antimicrobial activity against Enterobacter cloacae by broth microdilution method; type: functional
Enterobacter cloacae [20] = assay: Antimicrobial activity against Enterobacter cloacae with nonderepressed AmpC beta-lactamsae by broth microdilution method; type: functional
Enterobacter cloacae [21] = assay: Antimicrobial activity against Enterobacter cloacae with derepressed AmpC beta-lactamsae by broth microdilution method; type: functional
Enterobacter cloacae [22] = assay: Antimicrobial activity against Enterobacter cloacae with nonderepressed AmpC beta-lactamsae assessed as intermediate isolate by broth microdilution method; type: functional
Enterobacter cloacae [23] = assay: Antimicrobial activity against Enterobacter cloacae with derepressed AmpC beta-lactamsae assessed as intermediate isolate by broth microdilution method; type: functional
Citrobacter [24] = assay: Antimicrobial activity against Citrobacter by broth microdilution method; type: functional
Citrobacter [25] = assay: Antimicrobial activity against Citrobacter with derepressed AmpC beta-lactamsae by broth microdilution method; type: functional
Citrobacter [26] = assay: Antimicrobial activity against Citrobacter assessed as susceptible isolate by broth microdilution method; type: functional
Citrobacter [27] = assay: Antimicrobial activity against Citrobacter with nonderepressed AmpC beta-lactamsae assessed as susceptible isolate by broth microdilution method; type: functional
Citrobacter [28] = assay: Antimicrobial activity against Citrobacter with nonderepressed AmpC beta-lactamsae assessed as intermediate isolate by broth microdilution method; type: functional
Citrobacter [29] = assay: Antimicrobial activity against Citrobacter with derepressed AmpC beta-lactamsae assessed as susceptible isolate by broth microdilution method; type: functional
Serratia marcescens [30] = assay: Antimicrobial activity against Serratia marcescens by broth microdilution method; type: functional
Serratia marcescens [31] = assay: Antimicrobial activity against Ceftazidime susceptible Serratia marcescens by broth microdilution method; type: functional
Serratia marcescens [32] = assay: Antimicrobial activity against Ceftazidime non-susceptible Serratia marcescens by broth microdilution method; type: functional
Serratia marcescens [33] = assay: Antimicrobial activity against Serratia marcescens assessed as susceptible isolate by broth microdilution method; type: functional
Serratia marcescens [34] = assay: Antimicrobial activity against Ceftazidime susceptible Serratia marcescens assessed as intermediate isolate by broth microdilution method; type: functional
Serratia marcescens [35] = assay: Antimicrobial activity against Ceftazidime non-susceptible Serratia marcescens assessed as intermediate isolate by broth microdilution method; type: functional
Pseudomonas aeruginosa [36] = assay: Antimicrobial activity against Ceftazidime susceptible Pseudomonas aeruginosa by broth microdilution method; type: functional
Pseudomonas aeruginosa [37] = assay: Antimicrobial activity against imipenem susceptible Pseudomonas aeruginosa by broth microdilution method; type: functional
Pseudomonas aeruginosa [38] = assay: Antimicrobial activity against imipenem non-susceptible Pseudomonas aeruginosa by broth microdilution method; type: functional
Pseudomonas aeruginosa [39] = assay: Antimicrobial activity against Ceftazidime susceptible Pseudomonas aeruginosa assessed as susceptible isolate by broth microdilution method; type: functional
Pseudomonas aeruginosa [40] = assay: Antimicrobial activity against Ceftazidime susceptible Pseudomonas aeruginosa assessed as intermediate isolate by broth microdilution method; type: functional
Pseudomonas aeruginosa [41] = assay: Antimicrobial activity against Ceftazidime susceptible Pseudomonas aeruginosa assessed as resistant isolate by broth microdilution method; type: functional
Pseudomonas aeruginosa [42] = assay: Antimicrobial activity against Ceftazidime non-susceptible Pseudomonas aeruginosa assessed as intermediate isolate by broth microdilution method; type: functional
Pseudomonas aeruginosa [43] = assay: Antimicrobial activity against imipenem susceptible Pseudomonas aeruginosa assessed as susceptible isolate by broth microdilution method; type: functional
Pseudomonas aeruginosa [44] = assay: Antimicrobial activity against imipenem susceptible Pseudomonas aeruginosa assessed as intermediate isolate by broth microdilution method; type: functional
Acinetobacter [45] = assay: Antimicrobial activity against Acinetobacter by broth microdilution method; type: functional
Acinetobacter [46] = assay: Antimicrobial activity against imipenem susceptible Acinetobacter by broth microdilution method; type: functional
Acinetobacter [47] = assay: Antimicrobial activity against imipenem non-susceptible Acinetobacter by broth microdilution method; type: functional
Acinetobacter [48] = assay: Antimicrobial activity against Acinetobacter assessed as susceptible isolate by broth microdilution method; type: functional
Acinetobacter [49] = assay: Antimicrobial activity against imipenem susceptible Acinetobacter assessed as susceptible isolate by broth microdilution method; type: functional
Acinetobacter [50] = assay: Antimicrobial activity against imipenem non-susceptible Acinetobacter assessed as resistant isolate by broth microdilution method; type: functional
Staphylococcus = assay: Antimicrobial activity against methicillin-susceptible coagulase-negative Staphylococcus by broth microdilution method; type: functional; conditions: Staphylococcus
Streptococcus pneumoniae = assay: Antimicrobial activity against penicillin-resistant Streptococcus pneumoniae by broth microdilution method; type: functional; conditions: Streptococcus pneumoniae
Pseudomonas aeruginosa [51] = assay: Antimicrobial activity against Pseudomonas aeruginosa isolated from patient by broth microdilution method
Pseudomonas aeruginosa [52] = assay: Antimicrobial activity against Pseudomonas aeruginosa isolated from ICU patient assessed as resistant isolate by broth microdilution method

C[C@@H](O)[C@H]1C(=O)N2C(C(=O)O)=C(SCCNC=N)C[C@H]12 [IMIPENEM ANHYDROUS]
MIC50 (Enterobacteriaceae [1]): 0.5 µg/mL (≈ 1.67 µM) | MIC90 (Enterobacteriaceae [1]): 2 µg/mL (≈ 6.68 µM) | MIC50 (Enterobacteriaceae [2]): 1 µg/mL (≈ 3.34 µM) | MIC90 (Enterobacteriaceae [2]): 2 µg/mL (≈ 6.68 µM) | Activity (Enterobacteriaceae [3]): 0.3% | Activity (Enterobacteriaceae [4]): 0.1% | Activity (Enterobacteriaceae [5]): 1.7% | Activity (Escherichia coli [6]): 100% | Activity (Escherichia coli [7]): 100% | MIC50 (Klebsiella pneumoniae [8]): 0.5 µg/mL (≈ 1.67 µM) | MIC90 (Klebsiella pneumoniae [8]): 1 µg/mL (≈ 3.34 µM) | Activity (Klebsiella pneumoniae [9]): 99.7% | Activity (Klebsiella pneumoniae [10]): 95.5% | Activity (Klebsiella pneumoniae [11]): 2.3% | MIC50 (Proteus mirabilis [12]): 2 µg/mL (≈ 6.68 µM) | MIC90 (Proteus mirabilis [12]): 4 µg/mL (≈ 13.4 µM) | Activity (Proteus mirabilis [13]): 97.3% | MIC50 (Pseudomonas aeruginosa [14]): 4 µg/mL (≈ 13.4 µM) | MIC90 (Pseudomonas aeruginosa [14]): 32 µg/mL (≈ 107 µM) | MIC50 (Pseudomonas aeruginosa [15]): 4 µg/mL (≈ 13.4 µM) | MIC90 (Pseudomonas aeruginosa [15]): 32 µg/mL (≈ 107 µM) | Activity (Proteus mirabilis [16]): 97.3% | Activity (Proteus mirabilis [17]): 100% | Activity (Proteus mirabilis [18]): 0% | MIC50 (Enterobacter cloacae [19]): 1 µg/mL (≈ 3.34 µM) | MIC90 (Enterobacter cloacae [19]): 2 µg/mL (≈ 6.68 µM) | MIC50 (Enterobacter cloacae [20]): 1 µg/mL (≈ 3.34 µM) | MIC90 (Enterobacter cloacae [20]): 2 µg/mL (≈ 6.68 µM) | MIC50 (Enterobacter cloacae [21]): 1 µg/mL (≈ 3.34 µM) | MIC90 (Enterobacter cloacae [21]): 2 µg/mL (≈ 6.68 µM) | Activity (Enterobacter cloacae [22]): 0.5% | Activity (Enterobacter cloacae [23]): 0% | MIC50 (Citrobacter [24]): 1 µg/mL (≈ 3.34 µM) | MIC90 (Citrobacter [24]): 2 µg/mL (≈ 6.68 µM) | MIC50 (Citrobacter [25]): 1 µg/mL (≈ 3.34 µM) | MIC90 (Citrobacter [25]): 2 µg/mL (≈ 6.68 µM) | Activity (Citrobacter [26]): 99.8% | Activity (Citrobacter [27]): 99.8% | Activity (Citrobacter [28]): 0% | Activity (Citrobacter [29]): 100% | MIC50 (Serratia marcescens [30]): 2 µg/mL (≈ 6.68 µM) | MIC90 (Serratia marcescens [30]): 4 µg/mL (≈ 13.4 µM) | MIC50 (Serratia marcescens [31]): 2 µg/mL (≈ 6.68 µM) | MIC90 (Serratia marcescens [31]): 4 µg/mL (≈ 13.4 µM) | MIC50 (Serratia marcescens [32]): 2 µg/mL (≈ 6.68 µM) | MIC90 (Serratia marcescens [32]): 4 µg/mL (≈ 13.4 µM) | Activity (Serratia marcescens [33]): 98.9% | Activity (Serratia marcescens [34]): 0.3% | Activity (Serratia marcescens [35]): 0% | MIC50 (Pseudomonas aeruginosa [36]): 4 µg/mL (≈ 13.4 µM) | MIC90 (Pseudomonas aeruginosa [36]): 16 µg/mL (≈ 53.4 µM) | MIC50 (Pseudomonas aeruginosa [37]): 2 µg/mL (≈ 6.68 µM) | MIC90 (Pseudomonas aeruginosa [37]): 4 µg/mL (≈ 13.4 µM) | MIC50 (Pseudomonas aeruginosa [38]): 16 µg/mL (≈ 53.4 µM) | MIC90 (Pseudomonas aeruginosa [38]): > 32 µg/mL | Activity (Pseudomonas aeruginosa [39]): 79.3% | Activity (Pseudomonas aeruginosa [40]): 7.6% | Activity (Pseudomonas aeruginosa [41]): 13.1% | Activity (Pseudomonas aeruginosa [42]): 8.2% | Activity (Pseudomonas aeruginosa [43]): 100% | Activity (Pseudomonas aeruginosa [44]): 0% | MIC50 (Acinetobacter [45]): 1 µg/mL (≈ 3.34 µM) | MIC90 (Acinetobacter [45]): > 32 µg/mL | MIC50 (Acinetobacter [46]): 0.5 µg/mL (≈ 1.67 µM) | MIC90 (Acinetobacter [46]): 4 µg/mL (≈ 13.4 µM) | MIC50 (Acinetobacter [47]): > 32 µg/mL | MIC90 (Acinetobacter [47]): > 32 µg/mL | Activity (Acinetobacter [48]): 82.4% | Activity (Acinetobacter [49]): 100% | Activity (Acinetobacter [50]): 96.1% | MIC50 (Staphylococcus; read-out: MIC50): ≤ 0.015 µg/mL | MIC90 (Staphylococcus; read-out: MIC90): 0.03 µg/mL (≈ 0.1 µM) | MIC50 (Streptococcus pneumoniae; read-out: MIC50): 0.5 µg/mL (≈ 1.67 µM) | MIC90 (Streptococcus pneumoniae; read-out: MIC90): 1 µg/mL (≈ 3.34 µM) | Activity (Pseudomonas aeruginosa [51]): 7.9% | Activity (Pseudomonas aeruginosa [52]): 26.6%
